Source: patent publication US11331368B2, “Angiotensin receptor agonists and uses thereof” (Monash University, priority 2017, dated 2022)

Key:
human AT1R = biological target: T1, human AT1R (Homo sapiens, UniProt P30556); test: Competition radioligand binding (125I-Sar1-Ile8-AngII) in AT1R-transfected HEK-293 cells
T1 construct: expressed in transfected cells
T1 sequence (P30556 1-359): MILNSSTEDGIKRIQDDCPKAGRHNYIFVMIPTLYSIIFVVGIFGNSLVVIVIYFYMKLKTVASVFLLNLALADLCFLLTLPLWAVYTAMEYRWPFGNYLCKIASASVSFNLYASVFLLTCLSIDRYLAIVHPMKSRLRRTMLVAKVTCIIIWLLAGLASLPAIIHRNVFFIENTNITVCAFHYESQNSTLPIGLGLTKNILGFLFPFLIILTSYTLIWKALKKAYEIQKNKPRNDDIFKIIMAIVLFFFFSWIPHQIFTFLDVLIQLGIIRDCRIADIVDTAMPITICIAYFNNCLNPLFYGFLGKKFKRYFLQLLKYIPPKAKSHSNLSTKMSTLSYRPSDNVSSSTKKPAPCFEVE
Description: (§1) This will lead to the generation of IC50 values that determine the relative ability of test compounds to interact with both Angiotensin receptors.
(§2) Cells were grown to approximately 80% confluence before being re-plated into 48 well plates at 1×10^5 cells/well and grown for 48 hours at 37° C. for a whole cell competition binding assay. [125I]-Sar1Ile8Ang II at 50,000 cpm, incubated for 45 minutes at 37° C., in the absence or presence of unlabeled ligands, prepared in binding buffer (DMEM, 0.1% BSA), were used in the competition assays at concentrations ranging from 1 μM to 10 μM. For each experiment, each ligand concentration was tested in duplicate or triplicate, and each experiment was repeated at least 3 separate times. […] The ability of each ligand to inhibit specific binding of [125I]-Sar1Ile8Ang II was measured on a gamma counter with all counts corrected for NSB.

human AT2R = biological target: T2, human AT2R (Homo sapiens, UniProt P50052); test: Competition radioligand binding (125I-Sar1-Ile8-AngII) in AT2R-transfected HEK-293 cells; conditions: transfected HEK-293 cells
T2 construct: expressed in transfected cells
T2 sequence (P50052 1-363): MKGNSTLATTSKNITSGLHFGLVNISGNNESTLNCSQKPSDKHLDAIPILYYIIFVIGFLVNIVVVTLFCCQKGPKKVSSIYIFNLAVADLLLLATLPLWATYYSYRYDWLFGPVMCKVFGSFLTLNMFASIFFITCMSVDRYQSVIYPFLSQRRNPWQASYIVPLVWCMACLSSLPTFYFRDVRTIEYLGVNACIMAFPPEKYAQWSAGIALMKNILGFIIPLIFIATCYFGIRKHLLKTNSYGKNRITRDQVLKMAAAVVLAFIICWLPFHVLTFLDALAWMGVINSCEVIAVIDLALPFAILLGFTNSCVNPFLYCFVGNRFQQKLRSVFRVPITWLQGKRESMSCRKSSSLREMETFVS
Description: as §1, §2

[1] = In vitro plasma stability assay (rat plasma); format: in vitro ADME; conditions: plasma from male spontaneously hypertensive rats (SHR), read-out: Plasma stability (t1/2)
Description: Proteolytic stability may be tested in a plasma stability assay used to assess the susceptibility of a peptide described herein to plasma proteases. Plasma stability may be tested using methods described herein. For example, a sample of rat plasma may be incubated with peptide of interest (final concentration was 1 mg/mL; plasma diluted by 10% with peptide dissolved in saline). Protease activity is then quenched in samples by the addition of acetonitrile, at selected time intervals. The amount of parent compound remaining at each time point can then be assayed on an Agilent 1100 MSD SL ion trap mass spectrometer. The peaks observed in the resulting chromatograms are integrated, compared to a standard curve, and cross-checked by mass and retention time (Jones et al 2011 Hypertension. 57: 570-576).
B) Proteolytic stability was tested in a plasma stability assay used to assess the susceptibility of Ang II peptides to plasma proteases. A sample of rat plasma was incubated with peptide of interest (final concentration was 1 mg/mL; plasma diluted by 10% with peptide dissolved in saline). Protease activity was quenched in samples by the addition of acetonitrile, at selected time intervals. The amount of parent compound remaining at each time point was then assayed on an Agilent 1100 MSD SL ion trap mass spectrometer. […]

[2] = tested on: male FVB/N mice on high salt diet, heart; test: High salt (5%) diet intervention model, heart; format: in vivo, mouse
Outline: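 Male FVB/N mice fed 5% salt diet for 8 weeks (controls 0.35% NaCl); from week 4, AT2R agonist at 75 pmol/kg/min or saline given subcutaneously by osmotic minipump for 4 weeks on continued high salt. Heart collagen by picrosirius red, % interstitial staining averaged over eight fields; immunofluorescence for fibrosis/inflammation markers.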

[3] = tested on: male FVB/N mice on high salt diet, kidney; test: High salt (5%) diet intervention model, kidney; format: in vivo, mouse; conditions: 75 pmol/kg/min s.c., weeks 5-8
Description: C) In the intervention (or reversal) model, male FVB/N mice were treated with selective AT2Rs agonists after the establishment of cardiovascular disease using a high salt diet, in order to reverse cardiovascular pathologies. In some experiments, the ACE inhibitor captopril (dose) or the ARB candesartan cilexetil (dose) were given for 4 weeks in drinking water. Organs examined included heart, kidney and liver and these were compared to either untreated mice or high salt-fed mice that were treated with saline.
Mice were placed on either a normal rodent diet (0.35% NaCl) which acted as control or a high salt diet (5% sodium in food chow) for 8 weeks. After 4 weeks, mice were also treated subcutaneously (via osmotic mini-pump) with either saline or an AT2R agonist (75 pmol/kg/min subcutaneously) for 4 weeks. Mice continued to be fed a high salt diet whilst receiving these treatments.
To measure collagen deposition, frozen sections of heart, kidney or aorta (all 5 μm thickness) were air dried for 10 minutes and were brought through 3 times xylene (2 minutes each), and 3 times absolute alcohol washes before being rinsed in tap H2O for 30 seconds. Staining with an optimal concentration of picrosirius red (in this instance 0.05% picrosirius red diluted in saturated picric acid) was performed and left for an hour. Sections were then rinsed in water and differentiated in 0.01M HCl for 2 minutes, followed by dehydration via 3 times absolute alcohol washes. Then, slides were brought through 3 times xylene washes before being cover slipped according to standard histological techniques using DPX as the mounting medium. Images were taken under ×20 magnification, using bright field (Olympus, BX51) and circularized polarized light microscopy (DM IRB, Leica) while percentage of positive interstitial collagen staining per total field of view was quantified using ImageJ 1.46 software (Java, NIH), and averaged out from a total of eight views as the final percentage collagen content in a particular animal.
Kidney sections used either picrosirius red staining as described above or using Mason's Trichrome staining as described below.
Formalin fixed, paraffin embedded kidneys were sectioned at thickness of 4 μm and were stained with Masson's trichrome according to standard procedures for analysis of kidney fibrosis. […] Sections were re-fixed in Bouin's solution for 1 hour at 56° C. to improve staining quality then rinsed in running tap water for 5-10 minutes to remove yellow colour. Following this, sections were stained in Weigert's iron hematoxylin working solution for 10 minutes. Rinsed in running warm tap water for 10 minutes. Washed in distilled water. Stained in Biebrich scarlet-acid fuchsin solution for 10-15 minutes. Washed in distilled water. Differentiated in phosphomolybdic-phosphotungstic acid solution for 10-15 minutes or until collagen was no longer red. Sections were transferred directly (without rinse) to aniline blue solution and stained for 5-10 minutes. Rinsed briefly in distilled water and differentiated in 1% acetic acid solution for 2-5 minutes. Washed in distilled water. […] Mounted with DPX mounting medium.
Quantification of kidney fibrosis was performed using images captured with the Aperio scanner (Monash Histology Platform, Monash University), with ×5 magnification. Each kidney section had 5 different fields of view photographed at this magnification. Percentage of tubulointerstitial collagen was analysed and quantified using ImageJ 1.48 software (Java, NIH), and the percentage from 5 random fields of view were averaged for final percentage of collagen for that particular animal. All analysis of collagen expression was conducted in a blinded fashion.

[4] = tested on: male FVB/N mice on high salt diet, kidney; test: High salt (5%) diet intervention model, kidney; format: in vivo, mouse; conditions: 75 pmol/kg/min s.c., weeks 5-8; remark: listed apart in the source

## CC[C@H](C)[C@H](NC(=O)[C@H](Cc1ccc(O)cc1)NC(=O)[C@@H](NC(=O)[C@H](CCCNC(=N)N)NC(C)=O)C(C)C)C(=O)N[C@@H](Cc1c[nH]cn1)C(=O)N1CCC[C@H]1CC(=O)N[C@@H](Cc1c[nH]c2ccccc12)C(=O)O [NAc-βPro-Trp-8-Ang III, NAc--Arg-Val-Tyr-Ile-His-β-Pro-Trp]
Human AT1R
  binding at AT1R (displacement of 125I-Sar1-Ile8-AngII), in words: bind poorly
Human AT2R
  binding at AT2R (displacement of 125I-Sar1-Ile8-AngII), in words: high affinity
[1]
  half-life at 1 mg/mL: 1550 min
[2]; 75 pmol/kg/min s.c., weeks 5-8
  cardiac fibrosis by hydroxyproline analysis (LV collagen content): reversed the pro-fibrotic effects of high salt in the heart
  cardiac oxidative stress (DHE staining): reversed the oxidative stress effects of high salt in the heart
  myofibroblast differentiation in heart (α-SMA): reversed myofibroblast differentiation
[2]; weeks 5-8, peptides 75 pmol/kg/min s.c., Cand 2 mg/kg/day, captopril 3 mg/kg/day
  expression of P-IκBα (marker for NFκB activation) in heart: reversed
[2]; weeks 5-8 of high salt diet, peptides 75 pmol/kg/min s.c. mini-pump, Cand 2 mg/kg/day, captopril 3 mg/kg/day in drinking water
  cardiac fibrosis (picrosirius red): reversed cardiac fibrosis
[3]
  kidney glomerular fibrosis (picrosirius red): reversed the glomerular fibrosis caused by high salt in the kidney
  kidney tubulointerstitial fibrosis (picrosirius red): reversed the tubulointerstitial fibrosis caused by high salt in the kidney
[4]
  macrophage infiltration in kidney (F4/80): reversed high salt-induced macrophage infiltration in the kidney
  renal fibrosis by hydroxyproline analysis: reversed the pro-fibrotic effects of high salt in the kidney
  renal inflammation (phospho-IκBα expression): reversed high salt-induced renal inflammation in the kidney
